Results reported in patent publication US8518953B2, “Aminopyrimidines useful as inhibitors of protein kinases” (Vertex Pharmaceuticals Incorporated, priority 2007, dated 2013).

Legend:
[1] = system: human umbilical vein endothelial cells (HUVEC); assay: In Vitro Model of Angiogenesis Using HUVEC and Skin Fibroblasts; assay type: cell-based; settings: HUVEC cultures
From the text: Compounds are screened for the ability to enhance angiogenesis in human umbilical vein endothelial cells (HUVEC). This method, adapted from Nakatsu et al. Microvas. Res. 2003, describes a protocol that recapitulates the major events essential for new vessel growth: budding, cell migration, cell proliferation, lumen formation, branching, and anastomosis. HUVEC are used between P3 and P4. HUVEC are mixed with dextran coated cytodex 3 micro-carriers (Amersham Pharmacia) at a concentration of 400 HUVEC per bead in 1 ml of EGM-2 (2% FBS) medium (Clonetics). Beads with cells are then shaken gently every 20 min for 4 hr at 37° C. and 5% CO2. After incubating, beads with cells are transferred to a T-25 tissue culture flask and left for 12-16 hr in 5 ml of EGM-2 at 37° C. 5% CO2. The following day beads with cells are washed three times with EGM-2 and re-suspended at a concentration of 200 cell-coated beads/ml in 2.5 mg/ml of fibrinogen (Sigma) with 0.15 U/ml of aprotinin (Sigma) at a pH of 7.4. 500 ul of fibrinogen/bead solution is then added to 0.625 U of thrombin (Sigma) in one well of a 24 well tissue culture plate. Fibrinogen/Bead solution is allowed to clot for 5 min at room temperature and then at 37° C. 5% CO2 for 20 min. 1 ml of EGM-2 with 0.15 U/ml of aprotinin is then added to each well and equilibrated with the fibrin clot for 30 min at 37° C. and 5% CO2. Next, media is removed from the well and replaced with 1 ml of fresh medium. 20,000 skin fibroblasts (SF ATCC Detroit 551) are plated on top of the clot and medium is changed every other day. […] Angiogenesis is scored by quantification of images captured on an inverted microscope at 10× and 20× magnification for vessel length, number of vessels and branches per bead using NIH Image J software. […] YFP positive HUVEC are then cultured as described above and quantification of vessel formation is determined by calculating the area under the threshold fluorescence using NIH Image J software. In both cases, enhanced angiogenesis is determined by comparing compound treated cultures with a DMSO control culture at the same time point.

rats subjected to MCAO = assay: Post Stroke Recovery MCAO Model: Forepaw Asymmetry (Cylinder Test); assay type: in vivo, rat; settings: low dose, 14 days after stroke
From the text: Adult male Wistar rats are pre-trained on a battery of behavioral tests including: tray reach, […], forelimb asymmetry (cylinder bracing), forelimb inhibition (swim test) (see below for detailed description of tests). Following pre-stroke behavioral assessment the rats receive surgery during which a stroke is induced. The rats are pseudo-randomly divided into 5 equal groups (n=12) ensuring an equal number of right and left strokes within each treatment group. The first group receives sham surgery with vehicle as treatment. Administration of the test compound and vehicle (dose, route, timing) is determined by the sponsor. The core body temperature is maintained at 37° C. (+/-1°). Following surgery all animals are behaviorally assessed 1, 7, and 14 d post-stroke. At the conclusion of behavioral assessment all rats undergo an MRI to determine infarct volume. […] Rectal temperature is monitored and maintained at 37 C+/-1° C. for the duration of the surgery and until the rat is awake and mobile (approximately 3 hr). […] Forepaw asymmetry of the animals is measured by placing a rat into a clear acrylic cylinder 25 cm in diameter. […] The first paw that touches the cylinder wall during the rear is counted. […]

[2] = system: β-catenin dependent TCF/LEF transcriptional activity; assay: β-Catenin Stabilization Protocol (β-lactamase reporter assay in Jurkat cells); assay type: cell-based; settings: Homo sapiens, 460/530 ratio, read-out: Beta Catenin IC50
From the text: GSK-3 phosphorylation of β-catenin targets it to the proteosome for degradation. Inhibition of GSK-3 results in accumulation of β-catenin in the cytosol of cells which through interaction with the transcription factor TCF/LEF translocates to the nucleus and drives the transcription of Wnt-dependent genes. The assay is designed to determine the level of β-catenin dependent TCF/LEF transcriptional activity in a quantitative manner through the use of a β-lactamase reporter assay in Jurkat cells dosed with a compound.
Jurkat β-catenin cells are starved overnight in assay media (1% FBS, 1× Penstrep, RPMI) in the flask. The next day Jurkat β-catenin cells are seeded in 96 well flat bottom plates at a density of 50,000 cells/well in assay media in a volume of 100 ul. The compound is added to the well at a final DMSO concentration of 0.75% and incubated at 37° C. o/n. The next day, 20 uL of 6×CCF4 dye is added to the wells and incubated at room temperature for 1-2 hours. Plates are read on the Cytofluor 4000 series multiwell plate reader and the 460/530 ratio is determined.

[3] = concentrations that have been shown to induce β-catenin

`Cc1nc(-c2ccccc2Cl)nc(Nc2n[nH]c3ncc(F)cc23)c1C` [Compound I-1, N-(2-(2-chlorophenyl)-5,6-dimethylpyrimidin-4-yl)-5-fluoro-1H-pyrazolo[3,4-b]pyridin-3-amine] was tested, and the “vessel and network formation” value ([1]; 10 nM, 7 days) was “increase vessel and network formation”, the cell proliferation [1, 3] was “increased cell proliferation was observed” and the vessel formation [1, 3] was “vessel formation was inhibited”. The “deficit in forepaw asymmetry (cylinder test)” value (rats subjected to MCAO) was “significantly ameliorated this deficit” and the IC50 [2] was 230 nM.
